From patent publication US20110027240A1, “[…] ENTRY […] FOR THERAPY OF HIV INFECTION” (priority 2008, published 2011)

System: lentiviral vector particles pseudotyped with the HIV-1 JRFL envelope glycoprotein
Experiment: Single-round infection assay
Format: cell-based
Settings: PM-1 cells; supernatants of transfected HEK 293T cells; eGFP positive cells by flow cytometry
Method: Virus production and titration: Viral vector supernatants were produced in HEK 293T cells. 6×10^6 cells were plated on 9.4 cm dishes 24 h prior to transfection. For transfection, the medium was changed and 25 μM chloroquine was added. 7.5 μg retroviral vector DNA was transfected by the calcium phosphate precipitation method. To generate GaLV pseudotyped retroviral particles 2 μg pALF-GaLV CM (GaLV CM expression plasmid; Stitz et al., Virology 2000) and 12.5 μg M57-DAW (MuLV gag/pol expression plasmid; Schambach et al., Gene Ther 2006) were transfected in addition. For the production of lentiviral vectors encoding eGFP, and pseudotyped with the HIV-1 JRFL envelope glycoprotein 7.5 μg pHR′SIN-cPPT-SEW-new (SIN lentiviral vector encoding eGFP), 12.5 μg pCMV-dR8.91 (lentiviral gag/pol expression plasmid), and 1 μg M118 (HIV-1 JRFL expression plasmid) were co-transfected. Medium was changed after 6-8 h incubation. […] In the case of lentiviral vectors expressing eGFP, vector titers were determined by transducing predefined numbers of PM-1 cells with serial dilutions of vector supernatant and analyzing the percentage of eGFP positive cells by flow cytometry. For retroviral vectors expressing secreted peptides transduced cells were analyzed by intracellular immunostaining for the peptide of interest. […]

WQQWERQVRFLDANITKLLEEAQIQQEKNMYELQELDKWASLWNWF [C46-EHO]
antiviral (inhibitory) activity of supernatants containing secreted peptides: slightly reduced
